According to patent US7531360B2, “Method of dechlorination treatment of flowing water, in particular upstream of a biological pollution detector” (Societe des Eaux de Marseille, priority 2005, dated 2009):
“Also recorded” adds a separate entry of the source.

Tests used:
trout fingerlings [1] = assay: Toxicity of chlorine for trout fingerlings: aquarium with increasing concentrations of sodium hypochlorite; format: in vivo; settings: maintained 8 hours
Protocol: This toxicity of chlorine for trout fingerlings has also been shown by the inventors. Twelve trout fingerlings were maintained in an aquarium containing water chlorinated with increasing concentrations of sodium hypochlorite. Each chlorine concentration was maintained for a period of 8 hours. The aquarium was placed under permanent aeration using an air pump equipped with a porous diffuser. The following table presents the results observed during this experiment.
The following table presents the results observed during this experiment. ([Cl2]=chlorine disinfectant expressed in equivalent Cl2.)

trout fingerlings [2] = assay: Tests of known dechlorination agents for use with biological detector
Excerpt: The inventors carried out a number of experiments to test the various known dechlorination agents mentioned above.

[3] = Flowing dechlorination test without trout fingerlings (metering pump, in-line mixer, FIG. 2)
[4] = Effect of excess ascorbic acid on pH, dissolved oxygen and residual chlorine in artificially chlorinated distributed water; settings: stoichiometric or slight excess of reducing agent
Excerpt: In order to ensure effective dechlorination, it is advantageous to control the system using a chlorine analyzer (a metering pump controlled by a chlorine analyzer). However, to avoid this metering pump control, it is possible to work with a slight excess of ascorbic acid. […] Experiments were thus carried out in this area on artificially chlorinated distributed water to verify these effects.
It should be noted that the pH still remains in a range favorable to the survival of trout fingerlings regardless of the initial pH of the distributed water.

Fario trout fingerlings = assay: Validation of treatment installation coupled with TruitoSEM biological detector
trout fingerlings [5] = settings: ascorbic acid 75 mg/l, 6 trout fingerlings, 15 days
Excerpt: As for the TruitoSEM, the aquarium was maintained under constant aeration.

[6] = Maintenance of reducing power of stored ascorbic acid solution over time (iodometry, FIG. 1); settings: for Reducing activity of degradation by-product: compared with initial ascorbic acid
trout fingerlings [7] = assay: Flowing dechlorination tests in the presence of trout fingerlings; format: in vivo; settings: continuous period of several days
Protocol: The dechlorinated water flowing out of the mixer directly feeds the aquarium, which is equipped with two probes to measure dissolved oxygen, pH and temperature in real time. The aquarium is maintained under permanent aeration so that stress is not induced in the fish due to a lack of dissolved oxygen.
These flowing dechlorination tests were then carried out in the presence of trout fingerlings, for a continuous period of several days.

OCl [sodium hypochlorite]
Effects observed (trout fingerlings [1]; [Cl2] 0.25 mg/l): No effect.
Mortality % observed (trout fingerlings [1]; [Cl2] 0.25 mg/l, 12 trout fingerlings): 0%
Effects observed (trout fingerlings [1]; [Cl2] 0.70 mg/l): Reduction in mobility; also recorded: Accelerated ventilation
Mortality % observed (trout fingerlings [1]; [Cl2] 0.70 mg/l): 10%
Effects observed (trout fingerlings [1]; [Cl2] 1.4 mg/l): Highly reduced mobility; also recorded: Loss of appetite; also recorded: Very high ventilation; also recorded: Reduction in the size of the iris
Mortality % observed (trout fingerlings [1]; [Cl2] 1.4 mg/l): 60%
Effects observed (trout fingerlings [1]; [Cl2] 2.1 mg/l): Swimming on the side then on the back; also recorded: Death
Mortality % observed (trout fingerlings [1]; [Cl2] 2.1 mg/l): 100%

O=C1O[C@H]([C@@H](O)CO)C([O-])=C1O.[Na+] [Sodium ascorbate, sodium ascorbate]
Stability of reagent (trout fingerlings [2]): lack of stability

O=C1O[C@H]([C@@H](O)CO)C(O)=C1O [ascorbic acid, L-ascorbic acid]
Ascorbic acid flow rate for effective dechlorination ([3]; 20% solution stored 60 days away from light at ambient temperature (R=3)): 0.036 L/h
Ascorbic acid flow rate for effective dechlorination ([3]; 20% solution, t=0, optimal setting (R=2.5)): 0.030 L/h
Decrease of speed of reaction with chlorine ([3]; ascorbic acid 60 days old): 16%
Dechlorination yield ([3]; initial chlorine 4.5 mg/l equivalent Cl2, 20% ascorbic acid flow rate 0.030 l/h (R=2.5)): ~100%
Residual chlorine concentration after treatment [4]: < 0.1 mg/L
Mortality of biological indicators (Fario trout fingerlings; 8 hours/day for twenty days, real operating conditions): did not generate any mortality
Elimination of chlorine in installation (Fario trout fingerlings; in-flow 4.5 mg/l Cl2, water 160 l/h, 20% ascorbic acid 0.036 l/h, solution stored 0 to 60 days): complete neutralization
Behavior of trout fingerlings (trout fingerlings [5]): did not show any significant change in the behavior
Reduction in reducing power over time ([6]; 10% ascorbic acid solution, darkness, approx. 20° C., after 35 days): −10%
Loss of reducing activity ([6]; ascorbic acid after 60 days, FIG. 1): 5%
Effectiveness of the product (chlorine elimination) after storage ([6]; at least 20% (200 g/l) solution, after 60 days of use): approximately 95%
Physical signs and mobility of trout fingerlings (trout fingerlings [7]): no abnormal physical signs and normal mobility

CCC(=O)C=O [ethylglyoxal]
Reducing activity of degradation by-product [6]: lessened reducing activity

O=S([O-])O.[Na+] [sodium bisulfite, sodium bisulfite (NaHSO3)]
Outcome for trout fingerlings (trout fingerlings [2]; various implementation conditions): death of the trout fingerlings

O=C1O[C@H]([C@@H](O)CO)C(=O)C1=O [dehydroascorbic acid]
Reducing activity of degradation by-product [6]: equivalent to that of the initial ascorbic acid
